Measured values from patent US20260242362A1, “PREPARATION OF 3,4,5-TRISUBSTITUTED TRIAZOLES AND METHODS OF USING THE SAME” (University of Florida Research Foundation, Incorporated, priority 2023, published 2026).
pEC50: −log10 of the molar value.

How the values were obtained:
kappa opioid receptor [1] = target: T1, kappa opioid receptor (Homo sapiens, UniProt P41145); experiment: GTPγS binding assay (G-protein activation); format: biochemical; details: for pEC50: 3 parameter nonlinear regression, nc = did not converge; for GTPγS Emax (% U60): relative to U69,593 = 100% Emax; for GTPγS maximum stimulation observed at 10 μM (starred Emax cells): * compounds that did not reach plateau
Target sequence in this assay (P41145 whole entry): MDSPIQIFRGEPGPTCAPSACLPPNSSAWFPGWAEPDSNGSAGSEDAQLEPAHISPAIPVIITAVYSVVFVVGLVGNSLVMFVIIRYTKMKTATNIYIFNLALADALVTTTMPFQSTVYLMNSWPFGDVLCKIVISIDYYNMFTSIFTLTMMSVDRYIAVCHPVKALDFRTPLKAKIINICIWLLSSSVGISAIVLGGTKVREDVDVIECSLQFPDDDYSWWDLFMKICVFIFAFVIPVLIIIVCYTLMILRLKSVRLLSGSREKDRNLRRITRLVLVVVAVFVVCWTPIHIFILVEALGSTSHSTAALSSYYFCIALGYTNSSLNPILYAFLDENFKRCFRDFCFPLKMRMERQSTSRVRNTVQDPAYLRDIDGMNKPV

[2] = mouse, microsomes
Protocol: Microsomal stability was determined using mouse hepatic microsomes and LC/MS detections over time (Zhou et al., 2013, 22).

kappa opioid receptor [3] = target: T1, kappa opioid receptor; experiment: PathHunter DiscoverX β-arrestin2 recruitment (enzyme fragment complementation) assay; format: cell-based; details: for β-arrestin2 maximum stimulation observed at 10 μM (starred Emax cells / % max at 10 uM): * compounds that did not reach plateau; for pEC50: 3 parameter nonlinear regression, nc = did not converge, read-out: β-arrestin2 EC50; for β-arrestin2 Emax (% U60): relative to U69,593 = 100% Emax, ~ did not plateau at 100%
Target sequence in this assay (P41145 whole entry): as above
Target sequence in this assay (P32121 whole entry partner): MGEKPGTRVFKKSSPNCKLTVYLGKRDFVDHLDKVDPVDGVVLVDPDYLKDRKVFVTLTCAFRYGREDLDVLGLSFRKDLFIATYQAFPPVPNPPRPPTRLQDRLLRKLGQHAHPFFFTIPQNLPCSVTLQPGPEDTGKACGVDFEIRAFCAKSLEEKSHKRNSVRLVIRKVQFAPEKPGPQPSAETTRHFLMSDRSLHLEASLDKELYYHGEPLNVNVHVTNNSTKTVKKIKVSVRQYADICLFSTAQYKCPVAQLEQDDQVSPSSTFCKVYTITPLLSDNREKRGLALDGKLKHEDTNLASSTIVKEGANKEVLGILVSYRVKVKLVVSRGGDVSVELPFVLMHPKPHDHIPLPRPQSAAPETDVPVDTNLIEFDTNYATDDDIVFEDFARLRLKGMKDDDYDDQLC

## Cc1ccc(CCc2nnc(-c3ccccn3)n2-c2ccccc2)cc1C(F)(F)F
Kappa opioid receptor [1]
  KOR potency / activity in words (SAR commentary): potency was completely lost

## Cc1ccc(/C=C/c2nnc(-c3ccccn3)n2Cc2nccs2)cc1C(F)(F)F [50 (UNC9078)]
[2]
  Microsomal Stability: 10.1 min
Kappa opioid receptor [3]
  β-arrestin2 maximum stimulation observed at 10 μM (starred Emax cells / % max at 10 uM): 51.6 (% max at 10 uM) % U60
Kappa opioid receptor [1]
  pEC50: 6.12
  GTPγS Emax (% U60): 81.6 % U60

## Cc1ccc(/C=C/c2nnc(-c3nccn3C)n2Cc2ccco2)cc1C(F)(F)F [51 (UNC9012)]
Kappa opioid receptor [3]
  β-arrestin2 maximum stimulation observed at 10 μM (starred Emax cells / % max at 10 uM): 17.3 (% max at 10 uM) % U60
Kappa opioid receptor [1]
  GTPγS Emax (% U60): 76.1 % U60

## Cc1ccc(/C=C/c2nnc(-c3nccn3C)n2Cc2cccs2)cc1C(F)(F)F [52 (UNC9166)]
[2]
  Microsomal Stability: 12.2 min
Kappa opioid receptor [3]
  pEC50: 4.25
  β-arrestin2 maximum stimulation observed at 10 μM (starred Emax cells / % max at 10 uM): 37.7 (% max at 10 uM) % U60
Kappa opioid receptor [1]
  pEC50: 6.46
  GTPγS Emax (% U60): 74.2 % U60

## Cc1ccc(/C=C/c2nnc(-c3nccn3C)n2Cc2nccs2)cc1C(F)(F)F [53 (UNC9081)]
[2]
  Microsomal Stability: 14.5 min
Kappa opioid receptor [3]
  pEC50: 5.80
  β-arrestin2 maximum stimulation observed at 10 μM (starred Emax cells / % max at 10 uM): 25.9 (% max at 10 uM) % U60
Kappa opioid receptor [1]
  pEC50: 6.51

## Cc1ccc(CCCc2nnc(-c3ccccn3)n2Cc2ccco2)cc1C(F)(F)F [Compound 3]
[2]
  Microsomal Stability: 1.6
Kappa opioid receptor [1]
  pEC50: 6.09
  GTPγS Emax (% U60): 74 % U60

## Cc1ccc(CCc2nnc(-c3ccccn3)n2Cc2ncco2)cc1C(F)(F)F [Compound 5a]
Kappa opioid receptor [3]
  pEC50: 6.27
Kappa opioid receptor [1]
  pEC50: 7.42

## Cc1ccc(CCc2nnc(-c3ccccn3)n2Cc2ccsc2)cc1C(F)(F)F [Compound 6]
[2]
  Microsomal Stability: 1.0 min
Kappa opioid receptor [3]
  pEC50: 6.09
Kappa opioid receptor [1]
  pEC50: 7.92

## Cc1ccc(CCc2nnc(-c3ccccn3)n2Cc2nccs2)cc1C(F)(F)F [Compound 7]
[2]
  Microsomal Stability: 2.1 min
Kappa opioid receptor [3]
  pEC50: 5.45
  β-arrestin2 Emax (% U60): 82 % U60
Kappa opioid receptor [1]
  pEC50: 7.29
  GTPγS Emax (% U60): 63 % U60

## Cc1ccc(CCc2nnc(-c3ccccn3)n2Cc2ccccc2)cc1C(F)(F)F [Compound 8]
[2]
  Microsomal Stability: 0.9 min
Kappa opioid receptor [3]
  pEC50: 5.20
  β-arrestin2 Emax (% U60): 180 % U60

## Cc1ccc(CCc2nnc(-c3ccccn3)n2Cc2ccccn2)cc1C(F)(F)F [Compound 10]
[2]
  Microsomal Stability: 1.0 min
Kappa opioid receptor [3]
  pEC50: 5.11
  β-arrestin2 Emax (% U60): 125 % U60
Kappa opioid receptor [1]
  GTPγS Emax (% U60): 784 % U60

## Cc1ccc(CCc2nnc(-c3ccccn3)n2Cc2cccnc2)cc1C(F)(F)F [Compound 11]
[2]
  Microsomal Stability: 1.7 min
Kappa opioid receptor [3]
  pEC50: 6.32
  β-arrestin2 Emax (% U60): 105 % U60
Kappa opioid receptor [1]
  pEC50: 7.15
  GTPγS Emax (% U60): 90 % U60

## Cc1ccc(CCc2nnc(-c3ccccn3)n2-c2cccc3ccccc23)cc1C(F)(F)F [Compound 11a]
Kappa opioid receptor [1]
  pEC50: 5.58

## Cc1ccc(CCc2nnc(-c3ccccn3)n2Cc2ccncc2)cc1C(F)(F)F [Compound 12]
[2]
  Microsomal Stability: 0.9 min
Kappa opioid receptor [3]
  β-arrestin2 maximum stimulation observed at 10 μM (starred Emax cells / % max at 10 uM): 12* % U60
Kappa opioid receptor [1]
  GTPγS maximum stimulation observed at 10 μM (starred Emax cells): 48* % U60

## Cc1ccc(CCc2nnc(-c3ccccn3)n2-c2ccc3ccccc3c2)cc1C(F)(F)F [Compound 12a]
Kappa opioid receptor [1]
  pEC50: 4.99

## Cc1ccc(CCc2nnc(-c3ccccn3)n2CC2CC2)cc1C(F)(F)F [Compound 13]
[2]
  Microsomal Stability: 0.9 min

## Cc1ccc(CCc2nnc(-c3ccccn3)n2CCc2ccccc2)cc1C(F)(F)F [Compound 13a]
Kappa opioid receptor [1]
  pEC50: 5.71

## Cc1ccc(CCc2nnc(-c3ccccc3)n2Cc2cccs2)cc1C(F)(F)F [Compound 14]
[2]
  Microsomal Stability: 1.8 min
Kappa opioid receptor [3]
  pEC50: < 5.00
  β-arrestin2 Emax (% U60): ~100 % U60

## Cc1ccc(CCc2nnc(-c3cccnc3)n2Cc2cccs2)cc1C(F)(F)F [Compound 15]
[2]
  Microsomal Stability: 1.0 min
Kappa opioid receptor [3]
  β-arrestin2 maximum stimulation observed at 10 μM (starred Emax cells / % max at 10 uM): 14* % U60
Kappa opioid receptor [1]
  GTPγS Emax (% U60): 85 % U60

## Cc1ccc(CCc2nnc(-c3ncccn3)n2Cc2cccs2)cc1C(F)(F)F [Compound 17]
[2]
  Microsomal Stability: 0.8 min
Kappa opioid receptor [3]
  pEC50: 5.66
  β-arrestin2 Emax (% U60): 150 % U60

## Cc1ccc(CCc2nnc(-c3ccccn3)n2CC2CCCO2)cc1C(F)(F)F (stereo not shown) [Compound 17a]
Kappa opioid receptor [3]
  pEC50: 5.27
Kappa opioid receptor [1]
  pEC50: 6.98

## Cc1ccc(CCc2nnc(-c3ccncn3)n2Cc2cccs2)cc1C(F)(F)F [Compound 18]
[2]
  Microsomal Stability: 1.1 min
Kappa opioid receptor [3]
  pEC50: < 5.00
  β-arrestin2 maximum stimulation observed at 10 μM (starred Emax cells / % max at 10 uM): 66* % U60

## Cc1ccc(CCc2nnc(-c3ncccc3C)n2Cc2cccs2)cc1C(F)(F)F [Compound 19]
[2]
  Microsomal Stability: 1.1 min
Kappa opioid receptor [3]
  pEC50: 5.81
  β-arrestin2 Emax (% U60): 117 % U60

## Cc1ccc(CCc2nnc(-c3cccc4ccccc34)n2Cc2cccs2)cc1C(F)(F)F [Compound 20]
[2]
  Microsomal Stability: 0.9 min
Kappa opioid receptor [3]
  pEC50: < 5.00
  β-arrestin2 maximum stimulation observed at 10 μM (starred Emax cells / % max at 10 uM): 76* % U60

## Cc1ccc(CCc2nnc(-c3ccc4ccccc4c3)n2Cc2cccs2)cc1C(F)(F)F [Compound 21]
[2]
  Microsomal Stability: 1.3 min
Kappa opioid receptor [3]
  β-arrestin2 maximum stimulation observed at 10 μM (starred Emax cells / % max at 10 uM): 16* % U60

## Cc1ccc(CCc2nnc(-c3ccc4ccccc4n3)n2Cc2cccs2)cc1C(F)(F)F [Compound 22]
[2]
  Microsomal Stability: 2.2 min
Kappa opioid receptor [3]
  pEC50: < 5.00
  β-arrestin2 Emax (% U60): ~100 % U60

## Cc1ccc(CCc2nnc(-c3cccn3C)n2Cc2cccs2)cc1C(F)(F)F [Compound 23]
[2]
  Microsomal Stability: 3.1 min
Kappa opioid receptor [3]
  pEC50: 5.88
Kappa opioid receptor [1]
  pEC50: 7.44

## COc1ccc(CCc2nnc(-c3ccccn3)n2Cc2cccs2)cc1 [Compound 25]
[2]
  Microsomal Stability: 5.6 min
Kappa opioid receptor [3]
  pEC50: < 5.00
  β-arrestin2 Emax (% U60): 124 % U60

## Fc1ccc(CCc2nnc(-c3ccccn3)n2Cc2cccs2)cc1 [Compound 26]
[2]
  Microsomal Stability: 3.1 min
Kappa opioid receptor [3]
  pEC50: 5.52
  β-arrestin2 Emax (% U60): 75 % U60
Kappa opioid receptor [1]
  pEC50: 6.54
  GTPγS Emax (% U60): 92 % U60

## Clc1ccc(CCc2nnc(-c3ccccn3)n2Cc2cccs2)cc1 [Compound 27]
[2]
  Microsomal Stability: 3.3 min
Kappa opioid receptor [3]
  pEC50: 5.43
  β-arrestin2 Emax (% U60): 102 % U60
Kappa opioid receptor [1]
  pEC50: 7.46
  GTPγS Emax (% U60): 93 % U60

## Brc1ccc(CCc2nnc(-c3ccccn3)n2Cc2cccs2)cc1 [Compound 28]
[2]
  Microsomal Stability: 4.6 min
Kappa opioid receptor [3]
  pEC50: 6.02
  β-arrestin2 Emax (% U60): 106 % U60
Kappa opioid receptor [1]
  GTPγS Emax (% U60): 96 % U60

## Brc1cccc(CCc2nnc(-c3ccccn3)n2Cc2cccs2)c1 [Compound 29]
[2]
  Microsomal Stability: 3.1 min
Kappa opioid receptor [3]
  pEC50: 5.30
  β-arrestin2 Emax (% U60): 114 % U60
Kappa opioid receptor [1]
  GTPγS Emax (% U60): 89 % U60

## Brc1ccccc1CCc1nnc(-c2ccccn2)n1Cc1cccs1 [Compound 30]
[2]
  Microsomal Stability: 1.7 min
Kappa opioid receptor [3]
  pEC50: < 5.00
  β-arrestin2 maximum stimulation observed at 10 μM (starred Emax cells / % max at 10 uM): 53* % U60
Kappa opioid receptor [1]
  GTPγS Emax (% U60): 84 % U60

## FC(F)(F)c1ccccc1CCc1nnc(-c2ccccn2)n1Cc1cccs1 [Compound 31]
[2]
  Microsomal Stability: 3.0 min
Kappa opioid receptor [3]
  pEC50: < 5.00
  β-arrestin2 Emax (% U60): 44 % U60

## FC(F)(F)c1ccc(CCc2nnc(-c3ccccn3)n2Cc2cccs2)cc1Cl [Compound 34]
[2]
  Microsomal Stability: 1.3 min
Kappa opioid receptor [3]
  pEC50: 6.90
Kappa opioid receptor [1]
  pEC50: 8.85

## c1ccc(-c2nnc(CCc3cccc4ccccc34)n2Cc2cccs2)nc1 [Compound 35]
[2]
  Microsomal Stability: 1 min
Kappa opioid receptor [3]
  pEC50: < 5.00
  β-arrestin2 Emax (% U60): 67 % U60

## c1ccc(-c2nnc(CCc3ccc4ccccc4c3)n2Cc2cccs2)nc1 [Compound 36]
[2]
  Microsomal Stability: 2.4 min

## c1ccc(-c2nnc(C3CCc4ccccc4C3)n2Cc2cccs2)nc1 (stereo not shown) [Compound 37]
[2]
  Microsomal Stability: 13.1 min

## C(=C/c1nnc(-c2ccccn2)n1Cc1ccco1)/c1ccccc1 [Compound 38]
[2]
  Microsomal Stability: 19.4 min
Kappa opioid receptor [3]
  β-arrestin2 maximum stimulation observed at 10 μM (starred Emax cells / % max at 10 uM): 0* % U60
Kappa opioid receptor [1]
  GTPγS maximum stimulation observed at 10 μM (starred Emax cells): 3* % U60

## Cc1cc(CCc2nnc(-c3ccccn3)n2Cc2cccs2)ccc1C(F)(F)F [Compound 39a]
Kappa opioid receptor [1]
  pEC50: 8.51

## FC(F)(Cc1ccccc1)c1nnc(-c2ccccn2)n1Cc1ccco1 [Compound 44]
Kappa opioid receptor [1]
  KOR potency / activity in words (SAR commentary): completely inactive

## OC(Cc1nnc(-c2ccccn2)n1Cc1ccco1)c1ccccc1 (stereo not shown) [Compound 45]
[2]
  Microsomal Stability: 20.7 min
